Consider 5 compounds from patent US4238472A, “Radioimmunoassay for chlorinated dibenzo-p-dioxins” (priority 1978, dated 1980).

Data set [1] concerns antiserum GC-5. Briefly: Cross reactivity in chlorinated DBD radioimmunoassay, antiserum GC-5. In kind it is binding, rabbit. From the text:
(§1) Since TCDD itself has no chemically reactive functional groups, a derivative was synthesized that retained most of the structural features of TCDD but with the addition of a reactive site. This derivative was coupled to an immunogenic protein carrier, such as bovine serum albumin, rabbit serum albumin, etc., so that animals would respond to it by producing an antiserum containing antibodies. A second compound was synthesized, still structurally similar to TCDD so that it would bind to the antibodies, but capable of being labeled with ^125 I for detectability at the picogram level. An amount of antiserum capable of binding about 20 pg of ^125 I-labeled dioxin derivative (hapten) is preincubated with the detergent emulsion of the sample extract (possibly containing TCDD). Then the mixture is incubated with the ^125 I-labeled derivative long enough for equilibrium binding to occur and form the hapten-antibody complex. A second antibody, namely, goat antibodies against rabbit gamma-globulin (i.e., goat anti-rabbit γ-globulin) are then added to precipitate the antibody ^125 I-labeled dioxin complex, and the amount of ^125 I in the precipitate is determined. The extent to which preincubation with the test material inhibits or decreases the amount of ^125 I precipitated relative to the amount precipitated in the absence of test material is a measure of the amount of chlorodibenzodioxin in the test sample.
(§2) Radioimmunoassay of small molecules requires some means of separating free hapten from antibody-bound hapten. The procedure used in the present invention, chosen because of its compatibility with detergent-solubilized hapten, involved precipitating the antibody-hapten complex with a second antibody, namely, goat antibodies against rabbit gamma-globulin. In this assay chlorodibenzodioxin from the environmental sample completes with the ^125 I-labeled hapten for binding to the antibody. Thus, the decrease in precipitation of radioactivity is a measure of the amount of (unlabeled) hapten in the test sample.
(§3) The assay buffer (hereinafter referred to as "PBS") contained, per liter, 20 mmol of potassium phosphate, 140 mmol of NaCl, and 200 mg of sodium azide. The pH was adjusted to 7.3 with NaOH. Antiserum was diluted with PBS also containing 0.1% bovine gamma globulin and 0.02% rabbit gamma globulin (w/v). Each assay tube from procedure G above received 0.2 ml of PBS, after which the tubes were held in the sonicator for 40 minutes and then cooled to room temperature. Appropriately diluted antiserum or, as control, antiserum diluant was added (0.2 ml) and, after vortex-mixing, the tubes were incubated for 40 minutes at 37°. 14000 disintegrations per minute (hereafter referred to as "DPM") or 7000 counts per minute (hereinafter referred to as "CPM", which equals DPM×counting efficiency) of [^125 I]-iodovaleramide derivative of trichlorodibenzo-p-dioxin in PBS containing 1% "Cutscum" were then added to each tube (approximately 10 μl), vortex mixed, and the tubes incubated for 1 hour at 37° followed by an additional 65 hours of incubation at 4°. Each tube next received 1.24 units of goat anti-rabbit gamma globulin in 0.2 ml of PBS containing 0.05 mM ethylenediamine tetracetic acid (hereinafter referred to as "EDTA"), was vortex mixed, and incubated for 5 hours at 4°. The tubes were centrifuged at 500×g for 20 minutes at 4°. The supernates were poured off and the tubes allowed to drain into Whatman #3 MM paper for 10 minutes. The precipitate or pellets obtained were then radioassayed for ^125 I, with 10 minute count cycles.
(§4) Standard curves were prepared using sequential two-fold dilutions of TCDD or other test compounds in benzene and evaporating the solvent as described above. Both control (blank) and TCDD-spiked tissues were extracted and processed as described above to determine general interference and recoveries. All samples were run in triplicate. […]

For data set [2], the system named is antiserum F-12. Description: Specificity / cross reactivity of the radioimmunoassay, antiserum F-12. The class given is binding, rabbit.
Excerpt: as §1, §2, §3, §4

The conditions of data set [3]: in vivo; cited from earlier work.
In data set [4] the test system is antiserum F-12. Description: Specificity / cross reactivity of the radioimmunoassay, antiserum F-12. The class given is binding, rabbit. Conditions: incubation times between 2 and 65 hours; "Cutscum".
The nature of data set [5]: Determination of 2,3,7,8-TCDD in monkey tissue by gas chromatography with negative ion mass spectrometry. The class given is in vivo, Rhesus Monkeys (Macaca muletta). From the text: (§5) Using spiked, sandy soil samples, the inventors were able to detect 0.7 picomole of 2,3,7,8-TCDD using "Cutsum" and either antiserum. With "Triton X-305" replacing the "Cutscum", as little as 0.08 picomole of 2,3,7,8-TCDDcould be detected. These levels of sensitivity required that a dilution of antiserum (usually about 1:9000) be used that would bind 33% of the ^125 I-labeled hapten. To test the applicability of this assay to tissue samples, the inventors obtained liver and adipose samples from monkeys that had been used in a toxicity study involving 2,3,7,8-TCDD [as described by E. E.McConnell et al in "Toxicity of 2,3,7,8-tetrachlorodibenzo-p-dioxin in Rhesus Monkeys (Macaca muletta) Following a Single Oral Dose", appearing in Toxicol. Appl. Pharmacol. 43/1,175-187(1978)]. Sample size ranged from 3 to 50 mg of tissue for the radioimmunoassay, while 200 mg samples were used for comparison assays by gas chromatography with either negative chemical ionization mass spectrometry [as described by J. R. Hass et al in "Determination of Polychlorinated Dibenzo-p-Dioxins in Biological Samples by Negative Chemical Ionization Mass Spectrometry", appearing in Anal. Chem. 50/11, 1471-1479 (1978)], or an electron capture detector as measuring device.
(§6) ^a Monkeys 373 and 374 were controls and dosed orally with corn oil
alone. Monkeys 380 and 391 were experimental and received a single oral […]

A short description of data set [6]: Determination of 2,3,7,8-TCDD in monkey tissue by gas chromatography with electron capture detector. The class given is in vivo, Rhesus Monkeys (Macaca muletta).
Excerpt: as §5, §6
alone. Monkeys 380 and 391 were experimental and received a single oral
dose of 70 μg/kg or 350 μg/kg TCDD in corn oil, respectively.
GCEC = Gas chromatography with electron capture detector.

For data set [7], the system named is guinea pig. Conditions: cited from earlier work.
A short description of data set [8]: Determination of 2,3,7,8-TCDD in monkey tissue by radioimmunoassay. In kind it is in vivo, Rhesus Monkeys (Macaca muletta). Conditions: antiserum F12, "Cutscum". As for the experimental part:
Blend 10 g of tissue in 200 ml of chloroform:methanol, 2:1 (v/v). Filter with suction through glass fiber filter paper (Reeve Angel grade 934AH or equivalent). Return the filter paper and cake to the blender jar and blend with 100 ml of chloroform:methanol, 2:1 (v/v). Filter as above ad combine filtrates. Add 52 ml of 1.2% aqueous KCl, mix well, let phases clear, and collect the lower phase in a 500 ml round bottom flask. Evaporate just to dryness at 40° using a rotary evaporator and water aspirator. This is a modification of the method of Folch et al [J.Biol.Chem.,236,497 (1957)].
Grind together 8 g of anhydrous sodium sulfate per gram of adipose, using a mortar and pestle. Extract the resulting powder with chloroform in a Soxhlet extractor, allowing at least 8 cycles.
Leach the lipid residue from 10 g of liver, 100 ml of blood or 1 g of adipose into 15 ml of CCl4. Partition against 15 ml of con.H2 SO4. Centrifuge at 2000 rpm for 30 minutes. Remove as much of the CCl4 layer as possible and record the volume recovered. Pass the CCl4 solution through anhydrous Na2 CO3 in a glass wool-plugged funnel, rinising the Na2 CO3 with 2 ml of fresh CCl4. Concentrate the filtrate just to dryness on a rotary evaporator at 40°. Leach the residue into 1.5 ml of n-hexane:methylene chloride, 97:3 (v/v).
as §3, with “Each tube next received 1.24 units of goat anti-rabbit gamma globulin in 0.2 ml of PBS containing 0.05 mM ethylenediamine tetracetic acid (hereinafter referred to as "EDTA"), was vortex mixed, and incubated for 5 hours at 4°. The tubes were centrifuged at 500×g for 20 minutes at 4°. The supernates were poured off and the tubes allowed to drain into Whatman #3 MM paper for 10 minutes. The precipitate or pellets obtained were then radioassayed for ^125 I, with 10 minute count cycles.” left out
Using spiked, sandy soil samples, the inventors were able to detect 0.7 picomole of 2,3,7,8-TCDD using "Cutsum" and either antiserum. With "Triton X-305" replacing the "Cutscum", as little as 0.08 picomole of 2,3,7,8-TCDDcould be detected. […]

Where [9] appears, read: monkey 380, adipose, single oral dose 70 μg/kg.
[10] abbreviates: monkey 391, adipose, single oral dose 350 μg/kg.
Setting [11] is: monkey 380, liver, single oral dose 70 μg/kg.
Where [12] appears, read: monkey 391, liver, single oral dose 350 μg/kg.

The structures appear in SMILES notation.

`Clc1cc2c(c(Cl)c1Cl)Oc1cc(Cl)c(Cl)c(Cl)c1O2` [1,2,3,6,7,8-Cl6 Dibenzo-p-Dioxin]: the “Cross Reactivity, Antiserum GC-5: 100 × (inhibition of 125I binding by 4 pmole of test compound)/(inhibition by 4 pmole of 2,3,7,8-TCDD)” value in data set [1] is recorded as 99%. Further, the “Cross Reactivity, Antiserum F-12: 100 × (inhibition of 125I binding by 4 pmole of test compound)/(inhibition by 4 pmole of 2,3,7,8-TCDD)” value in data set [2] is 9%. Also, the “toxicity relative to TCDD” value in data set [3] is “toxicities comparable to that of TCDD”.

Turning to `Clc1cc2c(c(Cl)c1Cl)Oc1c(cc(Cl)c(Cl)c1Cl)O2` [1,2,3,7,8,9-hexachlorodibenzo-p-dioxin], the “effective competition in the assay (predicted)” value in data set [2] (if available for testing) was “effective competitor”. Besides, the “toxicity relative to TCDD” value in data set [3] is reported as “toxicities comparable to that of TCDD”.

Consider `Clc1cc2c(cc1Cl)Oc1c(cc(Cl)c(Cl)c1Cl)O2` [1,2,3,7,8-Cl5 Dibenzo-p-Dioxin], for which, in data set [1], the “Cross Reactivity, Antiserum GC-5: 100 × (inhibition of 125I binding by 4 pmole of test compound)/(inhibition by 4 pmole of 2,3,7,8-TCDD)” value is recorded as 99%. In addition, in data set [2], the “Cross Reactivity, Antiserum F-12: 100 × (inhibition of 125I binding by 4 pmole of test compound)/(inhibition by 4 pmole of 2,3,7,8-TCDD)” value came out at 97%. Moreover, the “toxicity relative to TCDD” value in data set [3] is recorded as “toxicities comparable to that of TCDD”.

Regarding `Clc1cc2oc3cc(Cl)c(Cl)cc3c2cc1Cl` [2,3,7,8-Cl4 Dibenzofuran, 2,3,7,8-tetrachlorodibenzofuran], the “Cross Reactivity, Antiserum GC-5: 100 × (inhibition of 125I binding by 4 pmole of test compound)/(inhibition by 4 pmole of 2,3,7,8-TCDD)” value in data set [1] was determined as 25%. Moreover, in data set [2], the “reactivity with F-12 (2,3,7,8-tetrachlorodibenzo-p-dioxin v 2,3,7,8-tetrachlorodibenzofuran)” value is on record as “approximately the same reactivity” and the “Cross Reactivity, Antiserum F-12: 100 × (inhibition of 125I binding by 4 pmole of test compound)/(inhibition by 4 pmole of 2,3,7,8-TCDD)” value was found to be 92%. Besides, in data set [4], the “ratio of inhibition by 5 ng of 2,3,7,8-DBF to that of 2,3,7,8-DBD” value is given as “constant”.

With `Clc1cc2c(cc1Cl)Oc1cc(Cl)c(Cl)cc1O2` [2,3,7,8-TCDD, 2,3,7,8-tetrachlorodibenzo-p-dioxin], the “binding by the antibodies in GC-5” value in data set [1] was “Essentially all of these antibodies (in GC-5) also bind 2,3,7,8-TCDD”. Also, the “Cross Reactivity, Antiserum GC-5: 100 × (inhibition of 125I binding by 4 pmole of test compound)/(inhibition by 4 pmole of 2,3,7,8-TCDD)” value in data set [1] came to 100%. For the same compound, the “maximum inhibition of binding of 125I-labeled hapten” value in data set [1] (GC-5 diluted such that 33% of the label was bound in the absence of competitors) is “up to 97%”. Further, the “TCDD in tissue, GM-MS” value was determined as 28 ppb in data set [5] (setting [9]) and 1740 ppb in data set [5] (setting [10]). In data set [2], the “reactivity with F-12 (2,3,7,8-tetrachlorodibenzo-p-dioxin v 2,3,7,8-tetrachlorodibenzofuran)” value is “approximately the same reactivity”. In data set [2], the “Cross Reactivity, Antiserum F-12: 100 × (inhibition of 125I binding by 4 pmole of test compound)/(inhibition by 4 pmole of 2,3,7,8-TCDD)” value turned out to be 100%. The “TCDD in tissue, GC-EC” value is given as 87 ppb in data set [6] (setting [9]), 17 ppb in data set [6] (setting [11]), 1810 ppb in data set [6] (setting [10]) and 30 ppb in data set [6] (setting [12]). The “acute oral LD50” value in data set [7] is “less than 1 microgram per kg”. For the same compound, the “TCDD in tissue, RIA” value is on record as 41 ppb in data set [8] (setting [9]), 20 ppb in data set [8] (setting [11]), 1800 ppb in data set [8] (setting [10]) and 94 ppb in data set [8] (setting [12]).
